Columns and labels:
[1] = test system: L. tropica promastigotes; test: Antileishmanial activity on L. tropica promastigotes (MTT); type: cell-based, Leishmania tropica; conditions: for IC50: Leishmania tropica, 72 h, promastigotes, MTT, starred values mean of two experiments, read-out: IC50 (µM) L. tropica; for Antileishmanial activity in words: promastigotes of L. tropica and/or L. infantum; for Ratio IC50 miltef./IC50 compd., L. tropica: fold potency versus miltefosine; for IC50 amph. B ×100/IC50 compd., L. tropica: percent of amphotericin B potency, calculated for each experiment
[2] = test system: human microvascular endothelial cell line (HMEC-1); test: Cytotoxicity on HMEC-1 cells (MTT); type: cell-based; conditions: for IC50: Homo sapiens, cytotoxicity, HMEC-1 cells, MTT; for SI L. infantum (IC50 HMEC-1/IC50 L. infantum) / SI L. tropica (IC50 HMEC-1/IC50 L. tropica): selectivity index
[3] = test system: L. infantum promastigotes; test: Antileishmanial activity on L. infantum promastigotes (MTT); type: cell-based, Leishmania infantum; conditions: for IC50: Leishmania infantum, promastigotes, MTT, 72 h, read-out: IC50 (µM) L. infantum; for Ratio IC50 miltef./IC50 compd., L. infantum: fold potency versus miltefosine; for IC50 amph. B ×100/IC50 compd., L. infantum: percent of amphotericin B potency, calculated for each experiment
[4] = Cytotoxicity on Vero-76 cells (crystal violet); conditions: monkey, Vero-76 cells
[5] = test system: monkey kidney (Vero76) cells; test: Cytotoxicity on Vero-76 cells (crystal violet); conditions: selectivity index, Vero76

SMILES | IC50 [1] [µM] | Antileishmanial activity in words [1] | IC50 [2] [µM] | melting point [°C] | Ratio IC50 miltef./IC50 compd., L. tropica [1] | IC50 amph. B ×100/IC50 compd., L. tropica [1] | IC50 [3] [µM] | Ratio IC50 miltef./IC50 compd., L. infantum [3] | IC50 amph. B ×100/IC50 compd., L. infantum [3] | SI L. infantum (IC50 HMEC-1/IC50 L. infantum) [2] | SI L. tropica (IC50 HMEC-1/IC50 L. tropica) [2] | IC50 [4] [nM] | SI L. tropica (IC50 Vero76/IC50 L. tropica) [5] | SI L. infantum (IC50 Vero76/IC50 L. infantum) [5]
CCCCCCCCCCCc1nc2ccccc2[nH]1 [Compound 1, 2-Undecyl-1 H-benzimidazole] | > 16.2 | inactive | 51 ± 7.5 | 108.1 to 109.3 | – | – | – | – | – | – | – | – | – | –
CCCCCCCCCCCc1n(C)c2ccccc2[n+]1C.[I-] [Compound 3, 1,3-Dimethyl-2-undecyl-1 H-benzimidazol-3-ium iodide] | 1.68 | – | 2.64 ± 0.49 | 157.3 to 161.3 | 25.8 | 4.9 | 0.28 ± 0.07 | 111.6 | 55.7 | 9.43 | 1.57 | – | – | –
CCCCCCCCCCCc1n(Cc2ccccc2)c2ccccc2[n+]1Cc1ccccc1.[Cl-] [Compound 5, 1,3-Dibenzyl-2-undecyl-1H-benzimidazol-3-ium chloride] | 0.78 | – | 1.38 ± 0.17 | 223.3 to 225.3 | 55.5 | 10.5 | 0.61 ± 0.05 | 51.3 | 25.6 | 2.26 | 1.77 | – | – | –
CCCCCCCCCCCCCCCc1nc2ccccc2[nH]1 [Compound 6, 2-Pentadecyl-1 H-benzimidazole] | 5.05 ± 0.01 | – | > 37 | 88.8 to 94.2 | 8.6 | 1.6 | 10.1 ± 4.9 | 3.1 | 0.93 | – | – | – | – | –
CCCCCCCCCCCCCCCc1n(C)c2ccc(C(F)(F)F)cc2[n+]1C.[I-] [Compound 9, 1,3-Dimethyl-2-pentadecyl-5-trifluoromethyl-1 H-benzimidazol-3-ium iodide] | 0.87 ± 0.16 | – | 1.86 ± 0.34 | 116 to 118 | 49.7 | 11.9 | 1.32 ± 0.3 | 23.7 | 8.9 | 1.41 | 2.14 | – | – | –
CCCCCCCCCCCCCCCc1n(C)c2ccc([N+](=O)[O-])cc2[n+]1C.[I-] [Compound 10, 1,3-Dimethyl-5-nitro-2-pentadecyl-1 H-benzimidazol-3-ium iodide] | 1.4 ± 0.58 | – | 2.11 ± 0.45 | 154 to 156 | 30.9 | 7.35 | 0.96 ± 0.17 | 32.6 | 12.3 | 2.20 | 1.51 | – | – | –
CCCCCCCCCCCCCCCc1n(C)c2cc(Cl)c(Cl)cc2[n+]1C.[I-] [Compound 11, 5,6-Dichloro-1,3-dimethyl-2-pentadecyl-1 H-benzimidazol-3-ium iodide] | 1.06 ± 0.54 | – | 1.68 ± 0.75 | 200 to 203 | 40.8 | 9.1 | 0.84 ± 0.13 | 37.2 | 14.1 | 2.00 | 1.58 | – | – | –
CCCCCCCCCCCCCCCc1n(C)c2ccccc2[n+]1CCC.[I-] [Compound 12, 1-Methyl-2-pentadecyl-3-propyl-1H-benzimidazol-3-ium iodide] | 0.51 | – | 0.73 ± 0.37 | 144.7 to 147.4 | 84.8 | 16.1 | 0.42 ± 0.14 | 74.4 | 37.1 | 1.74 | 1.43 | – | – | –
CCCCCCCCCCCCCCCc1nc2ccccc2n1Cc1ccccc1 [Compound 13, 1-Benzyl-2-pentadecyl-1H-benzimidazole] | > 11.9 | inactive | > 47 | 60.7 to 61.8 | – | – | > 11.9 | – | – | – | – | – | – | –
CCCCCCCCCCCCCCCc1n(C)c2ccccc2[n+]1Cc1ccccc1.[Cl-] [Compound 14, 3-Benzyl-1-methyl-2-pentadecyl-1 H-benzimidazol-3-ium chloride] | 0.49 | – | 0.91 ± 0.19 | 215.7 to 219.3 | 88.3 | 16.7 | 0.64 ± 0.01 | 48.8 | 24.4 | 1.42 | 1.86 | – | – | –
CCCCCCCCCCCCCCCc1n(Cc2ccccc2)c2ccccc2[n+]1Cc1ccccc1.[Cl-] [Compound 15, 1,3-Dibenzyl-2-pentadecyl-1 H-benzimidazol-3-ium chloride] | 1.61 ± 0.15 | – | 0.94 ± 0.17 | 214.9 to 216.3 | 26.9 | 5.1 | 3.26 ± 0.8 | 9.6 | 2.9 | 0.29 | 0.60 | – | – | –
CCCC(CCC)c1nc2ccccc2[nH]1 [Compound 18, 2-(Heptan-4-yl)-1 H-benzimidazole] | 11.1 ± 2.73 | – | 65.1 ± 12.2 | 224.7 to 225.8 | 3.9 | 1.07 | > 39.6 | – | – | – | 5.87 | – | – | –
CCCC(CCC)c1n(C)c2ccccc2[n+]1C.[I-] [Compound 20, 1,3-Dimethyl-2-(heptan-4-yl)-1 H-benzimidazol-3-ium iodide] | > 73 | inactive | > 73 | 192.2 to 192.9 | – | – | – | – | – | – | – | – | – | –
COc1ccc(-c2nc3cc(C(F)(F)F)ccc3n2CCN(C)C)cc1 [Compound 26] | 29.6 ± 0.3 | moderately active | – | – | 1.5 | 0.60 | > 55 | – | – | – | – | > 100000 | >3.37 | –
CCN(CC)CCCn1c(-c2ccc(OC)cc2)nc2cc(C(F)(F)F)ccc21 [Compound 27] | 21.1 ± 5.84 | moderately active | – | – | 2.1 | 0.84 | 32.7 ± 3.92 | 1.0 | 0.64 | – | – | > 100000 | >4.74 | >3
C[n+]1c(-c2ccc(Cl)cc2)n(C[C@@H]2CCC[N+]3(C)CCCC[C@H]23)c2ccc(C(F)(F)F)cc21 (stereo partly drawn) [Compound 39, 2-(4-Chlorophenyl)-3-methyl-1-{[5-methylammonio-(1 S,9aR)-octahydroquinolizin-1-yl]-methyl}-5-trifluoromethyl-1 H-benzimidazol-3-ium diiodide] | > 27 | inactive | – | 165 to 169 | – | – | > 27 | – | – | – | – | – | – | –
